Values of other authors, collected in patent publication US7101842B2, “Targeted delivery of drugs for the treatment of parasitic infections” (priority 2001, dated 2006).

System: trypanosomiasis
Conditions: patients treated for sleeping sickness

Structure (SMILES): Nc1nc(N)nc(Nc2ccc([As]3SCC(CO)S3)cc2)n1 (centres unmarked) [melarsopral]
- fatal encepholopathy in recipients: 5–7%
- relapse rates: ≤ 10%
